Data taken from PubChem BioAssay AID248 (DTP/NCI, 2004).
Inconclusive results and toxic doses are left out. Rule as the data show it: active = T/C of 150% or more; inactive = T/C below 125%.

Tested on: L1210 leukemia ip in BDF1 mice, survival T/C
Test: NCI In Vivo Anticancer Drug Screen. Data for tumor model L1210 Leukemia (intraperitoneal) in B6D2F1 (BDF1) mice
Conditions: endpoint: mean survival time, higher = longer survival
Method in brief: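 Read-out is survival time, reported as the treated-group measurement over the vehicle-control measurement.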

[1] = dose: 100.0 mg/kg/injection, schedule: Q01DX009 (ip), vehicle: Klucel (hydroxypropylcellulose) (HPC)
[2] = dose: 100.0 mg/kg/injection, schedule: Q04DX003 (ip), vehicle: Klucel (hydroxypropylcellulose) (HPC)
[3] = dose: 200.0 mg/kg/injection, schedule: Q01DX009 (ip), vehicle: Klucel (hydroxypropylcellulose) (HPC)
[4] = dose: 200.0 mg/kg/injection, schedule: Q04DX003 (ip), vehicle: Klucel (hydroxypropylcellulose) (HPC)
[5] = dose: 400.0 mg/kg/injection, schedule: Q01DX009 (ip), vehicle: Klucel (hydroxypropylcellulose) (HPC)
[6] = dose: 400.0 mg/kg/injection, schedule: Q04DX003 (ip), vehicle: Klucel (hydroxypropylcellulose) (HPC)
[7] = dose: 100.0 mg/kg/injection, schedule: Q01DX001 (ip), vehicle: Klucel (hydroxypropylcellulose) (HPC)
[8] = dose: 200.0 mg/kg/injection, schedule: Q01DX001 (ip), vehicle: Klucel (hydroxypropylcellulose) (HPC)
[9] = dose: 400.0 mg/kg/injection, schedule: Q01DX001 (ip), vehicle: Klucel (hydroxypropylcellulose) (HPC)
[10] = dose: 100.0 mg/kg/injection, schedule: Q01DX001 (ip), vehicle: saline
[11] = dose: 200.0 mg/kg/injection, schedule: Q01DX001 (ip), vehicle: saline
[12] = dose: 400.0 mg/kg/injection, schedule: Q01DX001 (ip), vehicle: saline
[13] = dose: 50.0 mg/kg/injection, schedule: Q01DX009 (ip), vehicle: saline with Tween-80
[14] = dose: 100.0 mg/kg/injection, schedule: Q01DX009 (ip), vehicle: saline with Tween-80
[15] = dose: 200.0 mg/kg/injection, schedule: Q01DX009 (ip), vehicle: saline with Tween-80
[16] = dose: 100.0 mg/kg/injection, schedule: Q04DX003 (ip), vehicle: saline with Tween-80
[17] = dose: 200.0 mg/kg/injection, schedule: Q04DX003 (ip), vehicle: saline with Tween-80
[18] = dose: 400.0 mg/kg/injection, schedule: Q04DX003 (ip), vehicle: saline with Tween-80
[19] = dose: 100.0 mg/kg/injection, schedule: Q04DX002 (ip), vehicle: Klucel (hydroxypropylcellulose) (HPC)
[20] = dose: 200.0 mg/kg/injection, schedule: Q04DX002 (ip), vehicle: Klucel (hydroxypropylcellulose) (HPC)
[21] = dose: 400.0 mg/kg/injection, schedule: Q04DX002 (ip), vehicle: Klucel (hydroxypropylcellulose) (HPC)

Measured: T/C

Nc1ccc(NS(=O)(=O)c2ccccc2)nc1
inactive: [1] 102 % of control | [2] 106 % of control | [3] 96 % of control | [4] 100 % of control | [5] 93 % of control | [6] 105 % of control

C1CCC(NC2=NCCO2)CC1
inactive: dose: 12.5 mg/kg/injection, schedule: Q04DX002 (ip), vehicle: saline with Tween-80 101 % of control | dose: 25.0 mg/kg/injection, schedule: Q04DX002 (ip), vehicle: saline with Tween-80 93 % of control | dose: 50.0 mg/kg/injection, schedule: Q04DX002 (ip), vehicle: saline with Tween-80 90 % of control

c1ccc([P+]2(Cc3cccc4ccccc34)CCc3[nH]c4ccccc4c3C2)cc1 (centres undefined)
inactive: [2] 96 % of control | [4] 98 % of control

O=NN(CCO)C(=O)Nc1ccc(NC(=O)N(CCO)N=O)cc1
inactive: dose: 9.0 mg/kg/injection, schedule: Q01DX001 (ip), vehicle: carboxymethylcellulose (CMC) 106 % of control | dose: 18.0 mg/kg/injection, schedule: Q01DX001 (ip), vehicle: carboxymethylcellulose (CMC) 108 % of control | dose: 26.0 mg/kg/injection, schedule: Q01DX001 (ip), vehicle: carboxymethylcellulose (CMC) 114 % of control | dose: 40.0 mg/kg/injection, schedule: Q01DX001 (ip), vehicle: carboxymethylcellulose (CMC) 111 % of control | dose: 60.0 mg/kg/injection, schedule: Q01DX001 (ip), vehicle: carboxymethylcellulose (CMC) 111 % of control

Nc1n[n+](=O)c2ccccc2n1O
inactive: dose: 1.17 mg/kg/injection, schedule: Q01DX001 (ip), vehicle: other 95 % of control | dose: 2.34 mg/kg/injection, schedule: Q01DX001 (ip), vehicle: other 101 % of control | dose: 4.69 mg/kg/injection, schedule: Q01DX001 (ip), vehicle: other 102 % of control

CN(C)CCNCC(=O)CC(O)(C(F)(F)F)C(F)(F)F
inactive: [7] 96 % of control | [2] 108 % of control | [8] 109 % of control | [4] 97 % of control | [9] 104 % of control | [6] 113 % of control

CC(=O)Nc1cccc(OCCOc2cccc([N+](=O)[O-])c2)c1
inactive: [10] 100 % of control | [11] 101 % of control | [12] 101 % of control

C#CCC(C)OS(=O)(=O)c1ccc(C)cc1 (centres undefined)
inactive: [10] 98 % of control | dose: 100.0 mg/kg/injection, schedule: Q04DX003 (ip), vehicle: saline 93 % of control | [11] 102 % of control | dose: 200.0 mg/kg/injection, schedule: Q04DX003 (ip), vehicle: saline 93 % of control | [12] 98 % of control | dose: 400.0 mg/kg/injection, schedule: Q04DX003 (ip), vehicle: saline 91 % of control

O=C(N/N=C/c1ccccc1)c1ccccc1
inactive: dose: 100.0 mg/kg/injection, schedule: Q01DX009 (ip), vehicle: saline 102 % of control | dose: 100.0 mg/kg/injection, schedule: Q04DX003 (ip), vehicle: alcohol 98 % of control | dose: 200.0 mg/kg/injection, schedule: Q01DX009 (ip), vehicle: saline 104 % of control | dose: 200.0 mg/kg/injection, schedule: Q04DX003 (ip), vehicle: alcohol 95 % of control | dose: 400.0 mg/kg/injection, schedule: Q01DX009 (ip), vehicle: saline 96 % of control | dose: 400.0 mg/kg/injection, schedule: Q04DX003 (ip), vehicle: alcohol 90 % of control

CC(=O)c1ccc(Cc2ccc(C(C)=O)s2)s1
inactive: [13] 86 % of control | [14] 93 % of control | [15] 89 % of control

O=C(COc1ccc(Cl)cc1Cl)NNc1ccc([N+](=O)[O-])cc1
inactive: dose: 100.0 mg/kg/injection, schedule: Q04DX002 (ip), vehicle: saline 100 % of control | dose: 200.0 mg/kg/injection, schedule: Q04DX002 (ip), vehicle: saline 92 % of control | dose: 400.0 mg/kg/injection, schedule: Q04DX002 (ip), vehicle: saline 88 % of control

Cc1ccc(NS(=O)(=O)c2ccc([N+](=O)[O-])cc2)cc1
inactive: [16] 103 % of control | [17] 89 % of control | [18] 89 % of control

c1ccc(-c2nc(-c3ccccc3)nc(-c3ccccc3)n2)cc1
inactive: [2] 98 % of control | [4] 94 % of control | [6] 94 % of control

O=C(CC1(O)C(=O)Nc2ccc(Br)cc21)c1ccc2c(c1)OCO2 (centres undefined)
inactive: [19] 92 % of control | [20] 104 % of control | [21] 95 % of control

c1cc2cc3c(cc2cc1CC1=NCCc2cc4c(cc21)OCO4)OCO3
inactive: dose: 100.0 mg/kg/injection, schedule: Q04DX003 (ip), vehicle: other 94 % of control | dose: 200.0 mg/kg/injection, schedule: Q01DX009 (ip), vehicle: other 102 % of control | dose: 200.0 mg/kg/injection, schedule: Q04DX003 (ip), vehicle: other 108 % of control | dose: 400.0 mg/kg/injection, schedule: Q01DX009 (ip), vehicle: other 94 % of control | dose: 400.0 mg/kg/injection, schedule: Q04DX003 (ip), vehicle: other 105 % of control

CC12C=CC3(CCC4C(C)(C)C(=O)C(O)=CC4(C)C3CC1=O)C2 (centres undefined)
inactive: [1] 103 % of control | [2] 95 % of control | [3] 94 % of control | [4] 98 % of control | [5] 94 % of control | [6] 98 % of control

O=C(O)COc1cc(F)c([N+](=O)[O-])cc1[N+](=O)[O-]
inactive: [19] 90 % of control | [20] 97 % of control

O=N[C@@H]1CCC[C@H](Cl)C1
inactive: [16] 95 % of control | [17] 98 % of control | [18] 95 % of control

O=c1[nH]c(=O)c2[nH]cnc2[nH]1
inactive: [13] 100 % of control | [14] 94 % of control | [15] 90 % of control

CCCCCCCCCC(C)CCCCCC (centres undefined)
inactive: dose: 75.0 mg/kg/injection, schedule: Q01DX001 (ip), vehicle: saline with Tween-80 100 % of control | dose: 150.0 mg/kg/injection, schedule: Q01DX001 (ip), vehicle: saline with Tween-80 116 % of control | dose: 300.0 mg/kg/injection, schedule: Q01DX001 (ip), vehicle: saline with Tween-80 92 % of control

O=C1C=CC(=O)N1C(=O)NC(I)NC(=O)N1C(=O)C=CC1=O
inactive: dose: 100.0 mg/kg/injection, schedule: Q01DX001 (ip), vehicle: carboxymethylcellulose (CMC) 94 % of control | dose: 200.0 mg/kg/injection, schedule: Q01DX001 (ip), vehicle: carboxymethylcellulose (CMC) 98 % of control | dose: 400.0 mg/kg/injection, schedule: Q01DX001 (ip), vehicle: carboxymethylcellulose (CMC) 100 % of control

Oc1cc(O)c2c(c1)OC(c1ccc(O)c(O)c1)C(O)C2c1c(O)cc(O)c2c1OC(c1ccc(O)c(O)c1)C(O)C2 (centres undefined)
inactive: [14] 101 % of control | [15] 97 % of control | dose: 400.0 mg/kg/injection, schedule: Q01DX009 (ip), vehicle: saline with Tween-80 93 % of control

CC(CCCCC1NC(=O)NC1C)C(=O)O (centres undefined)
inactive: [10] 95 % of control | [11] 90 % of control | [12] 90 % of control

O=C(NC/C(Br)=C/Br)C(F)(F)F
inactive: [7] 113 % of control | [2] 90 % of control | [8] 105 % of control | [4] 88 % of control | [9] 105 % of control | [6] 90 % of control

O=C(CBr)N1CCC2(CC1)SSC1(CCN(C(=O)CBr)CC1)S2
inactive: [13] 96 % of control | [14] 91 % of control | [16] 102 % of control | [17] 105 % of control

COc1cccc(/C=C/c2cnc3ccccc3n2)c1OC
inactive: dose: 50.0 mg/kg/injection, schedule: Q01DX009 (ip), vehicle: Klucel (hydroxypropylcellulose) (HPC) 104 % of control | [1] 92 % of control

S=C(c1ccccc1)N1CCOCC1
inactive: [19] 100 % of control | [20] 111 % of control | [21] 96 % of control

O=C(Nc1ccccc1)OCCc1ccc([N+](=O)[O-])cc1
inactive: [2] 100 % of control | [4] 98 % of control | [6] 102 % of control
